Experimental data: patent publication US9464061B2, “N-hydroxylamino-barbituric acid derivatives” (priority 2014, dated 2016)
Marks after values point to notes of the source that are not given here.

Experiments:
[1] = pH 7.4
[2] = pH 7.4; remark: listed apart in the source
physchem [3] = conditions: buffer, pH 7.4
physchem [4] = conditions: buffer, pH 7.4; remark: listed apart in the source
[5] = reported in WO 2013/059194; cited from earlier work
[6] = UV-vis method for pKa determination of compound 4 (Example 20); format: physicochemical; conditions: 0.10 M phosphate buffer, 25° C., read-out: pKa (ring nitrogen proton)
Procedure: A 1 mM solution of compound 4 is prepared in acetonitrile. To a cuvette containing 3.0 mL of 0.10 M phosphate buffer of the desired pH at 25° C. is added 50 μL of the compound 4 solution. The solution is mixed quickly by rapidly drawing up and dispensing the solution with a pipette. Absorbance spectra are collected immediately after the solution has mixed and settled.

| Structure (SMILES) | k (rate of appearance of BA byproduct, single exponential fit) [1] [s⁻¹] | HNO yield [2] | k (rate of disappearance of compound and appearance of BA byproduct, single exponential fit) [2] [s⁻¹] | half-life (physchem [3]) [h] | other results |
| --- | --- | --- | --- | --- | --- |
| CN1C(=O)N(C)C(=O)C(Cc2ccccc2)(NO)C1=O [Compound 1, 5-(N-hydroxylamino)-5-benzyl-N,N-dimethylbarbituric acid] | 0.00015 | 99^d | 0.00031 | – | melting point: 155 to 157 °C |
| O=C1NC(=O)C(NO)(c2ccccc2)C(=O)N1 [Compound 8, 5-(N-hydroxylamino)-5-phenyl-barbituric acid] | 0.00082 | – | – | 0.233 | – |
| COc1ccc(CC2(NO)C(=O)NC(=O)NC2=O)cc1 [Compound 6, 5-(N-hydroxylamino)-5-(4-methoxybenzyl)-barbituric acid] | 8.8e-05 | – | – | 2.2 | – |
| CC(C)CC1(NO)C(=O)NC(=O)NC1=O [Compound 10, 5-(N-hydroxylamino)-5-(2-methylpropyl)-barbituric acid] | 0.0005 | – | – | 0.383 | – |
| CC1(NO)C(=O)NC(=O)NC1=O [Compound 17, 5-(N-hydroxylamino)-5-methyl-barbituric acid] | 0.00025 | – | – | 0.767 | – |
| CC(C)C1(NO)C(=O)NC(=O)NC1=O [Compound 11, 5-(N-hydroxylamino)-5-(1-methylethyl)-barbituric acid] | – | 98 | 3.1e-06 | – | half-life (physchem [4]): 62.4 h |
| CCC1(NO)C(=O)N(C)C(=O)N(C)C1=O [5-ethyl HABA, 5-(N-hydroxylamine)-5-ethyl-N,N-dimethylbarbituric acid] | – | – | – | – | HNO production [5]: less than the desired amount of HNO |
| CCC(C)C1(NO)C(=O)NC(=O)NC1=O (stereo not drawn) [Compound 18, 5-(N-hydroxylamino)-5-(1-methylpropyl)-barbituric acid] | – | 102 | 5.9e-06 | – | half-life (physchem [4]): 32.9 h |
| COc1ccc(CC2(NO)C(=O)N(C)C(=O)N(C)C2=O)cc1 [Compound 2, 5-(N-hydroxylamino)-5-(4-methoxybenzyl)-N,N-dimethylbarbituric acid] | 8e-05 | 96^d | 0.00015 | – | melting point: 108 to 110 °C |
| C=CCC1(NO)C(=O)NC(=O)NC1=O [Compound 9, 5-(N-hydroxylamino)-5-(2-propen-1-yl)-barbituric acid] | 0.00013 | – | – | 1.5 | – |
| O=C1NC(=O)C(Cc2cccs2)(NO)C(=O)N1 [Compound 16, 5-(N-hydroxylamino)-5-(2-thienylmethyl)-barbituric acid] | 0.00029 | – | – | 0.667 | – |
| O=C1NC(=O)C(Cc2ccc(Cl)cc2)(NO)C(=O)N1 [Compound 7, 5-(N-hydroxylamino)-5-(4-chlorobenzyl)-barbituric acid] | 0.00016 | – | – | 1.18 | – |
| O=C1NC(=O)C(Cc2ccccc2)(NO)C(=O)N1 [Compound 5, 5-(N-hydroxylamino)-5-benzyl-barbituric acid] | 0.00013 | – | – | 1.53 | – |
| O=C1NC(=O)C(Cc2ccccc2Cl)(NO)C(=O)N1 [Compound 14, 5-(N-hydroxylamino)-5-(2-chlorobenzyl)-barbituric acid] | 0.00029 | – | – | 0.683 | – |
| CCCC(C)C1(NO)C(=O)NC(=O)NC1=O (stereo not drawn) [Compound 12, 5-(N-hydroxylamino)-5-(1-methylbutyl)-barbituric acid] | – | 102 | 5e-06 | – | half-life (physchem [4]): 38.5 h |
| CCC1(NO)C(=O)NC(=O)NC1=O [Compound 4, 5-(N-hydroxylamino)-5-ethyl-barbituric acid] | 3.7e-05 | 97^d | 0.00011 | – | melting point: > 300 °C; pKa [6]: ~7.4 |
| CN1C(=O)N(C)C(=O)C(Cc2ccc(Cl)cc2)(NO)C1=O [Compound 3, 5-(N-hydroxylamino)-5-(4-chlorobenzyl)-N,N-dimethylbarbituric acid] | 0.00025 | 92^d | 0.0006 | – | melting point: 155 to 157 °C |
